Earlier results as cited in US9550991B2, “Transcription factor decoys” (PROCARTA […]., priority 2010, dated 2017).
Entries after “also recorded” stand apart in the source; their conditions may differ.

What was measured:
[1] = physiological buffers, biological fluids, salt, dilution, storage

Row | Compound | in vitro toxicity compared to dequalinium | stability of complexes formed with DNA [1]
1 | Nc1c2c([n+](CCCCCCCCCC[n+]3c4c(c(N)c5ccccc53)CCCC4)c3ccccc13)CCCC2.[Cl-].[Cl-] [Compound 7, 10,10′-(decane-1,10-diyl)bis(9-amino-1,2,3,4-tetrahydroacridinium) dichloride] | lower toxicity in vitro compared to dequalinium; also recorded: less in vitro toxicity than dequalinium | forms more stable complexes
2 | Cc1cc(N)c2ccccc2[n+]1CCCCCCCCCC[n+]1c(C)cc(N)c2ccccc21 [dequalinium] |  | unstable over time
